Laboratory results reported in patent USRE34918E, “Azaazulene compounds which are useful as antiallergic and antiinflammatory agents” (Kaken Pharmaceutical Co., Ltd., priority 1988, dated 1995).
Structures can show the parent of a compound that is named as a salt.

What was measured:
[1] = system: histamine release from rat mast cell; experiment: Inhibitory activity against histamine release from rat mast cell; assay type: cell-based; settings: 10 μg/ml, read-out: Inhibitory rate against histamine release
Method: An anti-dinitrophenylated-ovalbumin (anti DNP-OVA) rat antiserum having 800 of PCA titer in homologous passive cutaneous anaphylaxis reaction in rats for 48 hours was diluted double with physiological saline, and 1 ml of diluted antiserum was injected intraperitoneally into rats to be passively sensitized. On the next day, peritoneal exudation cell (hereinafter referred to as "PEC") was collected. The collected PEC was washed with a medium containing 0.1% BSA, and 1.5×10^5 of the PEC were added to each test tube. AFter incubation at 37° C. for 10 minutes, 50 μl of test compound solution in a same medium was added thereto. After 30 seconds, 50 μl of antigen solution (DVA-OVA 100 μg/ml) was further added thereto to give the total amount of 500 μl of the reaction mixture, and histamine release reaction was induced. After 10 minutes, 1 ml of physiological saline with cooled Tris buffered solution containing 1 mM EDTA were added thereto to stop the reaction. After centrifugation, the amount of histamine in supernatant was determined by fluorescence method according to the method of Shore et al [cf. J. Pharmacol. Exp. Ther., 127, 182 (1959)]. Inhibition rate against histamine release was calculated according to the following equation.
Inhibition rate against histamine release [formula] M: Amount of histamine in supernatant under addition of antigen and non-addition of test compound
S: Amount of histamine in supernatant under addition of antigen and test compound
B: Amount of histamine in supernatant under non-addition of antigen and test compound.
The test compound was used in a concentration of 10 μg/ml.

5-lipoxygenase = biological target: T1, 5-lipoxygenase (Cavia porcellus, UniProt A0A286X958); experiment: 5-lipoxygenase inhibiting activity in guinea pig; assay type: biochemical; settings: read-out: Inhibition rate against 5-lipoxygenase activity
T1 construct: 5-lipoxygenase was prepared with polymorphonuclear leukocyte obtained from peritoneal cavity; endogenous in cells; host or cells: guinea pig peritoneal polymorphonuclear leukocytes (casein-elicited)
T1 sequence (A0A286X958 1-674): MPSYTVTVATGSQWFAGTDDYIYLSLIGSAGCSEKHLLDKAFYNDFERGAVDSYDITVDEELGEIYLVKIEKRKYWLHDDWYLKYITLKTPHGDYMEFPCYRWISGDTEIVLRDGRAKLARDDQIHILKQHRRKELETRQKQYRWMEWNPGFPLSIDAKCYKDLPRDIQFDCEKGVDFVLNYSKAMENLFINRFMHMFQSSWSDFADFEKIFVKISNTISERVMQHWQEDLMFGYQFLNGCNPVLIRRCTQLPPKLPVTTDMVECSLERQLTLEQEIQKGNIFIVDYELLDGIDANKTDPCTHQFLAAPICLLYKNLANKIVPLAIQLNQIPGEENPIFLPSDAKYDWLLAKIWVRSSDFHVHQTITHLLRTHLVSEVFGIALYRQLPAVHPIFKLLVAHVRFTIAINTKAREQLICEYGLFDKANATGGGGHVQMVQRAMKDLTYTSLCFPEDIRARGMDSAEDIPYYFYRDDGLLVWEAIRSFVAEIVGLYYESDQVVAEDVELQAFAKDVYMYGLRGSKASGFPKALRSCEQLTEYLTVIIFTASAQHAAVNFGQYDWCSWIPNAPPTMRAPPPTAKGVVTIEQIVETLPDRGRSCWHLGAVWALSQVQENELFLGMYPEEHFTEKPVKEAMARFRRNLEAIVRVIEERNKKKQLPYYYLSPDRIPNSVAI
Method: The test was carried out according to the method of Ochi [cf. J. Biol. Chem., 258, 5754-5758 (1983)]. Two % casein solution in saline was injected intraperitoneally into guinea pigs in an amount of 1/10 of body weight. After 16 hours, 5-lipoxygenase was prepared with polymorphonuclear leukocyte obtained from peritoneal cavity. Test compound and 5-lipoxygenase were pre-incubated at 30° C. for 10 minutes, CaCl2 (calcium chloride) and ^14 C-arachidonic acid were added thereto, and the resulting mixture was incubated for 20 minutes. A mixture of ethyl acetate/methanol/0.2M citric acid=30/4/1 (by volume) was added thereto to stop the reaction. After centrifugation, the organic solvent layer was spotted on a plate for thin layer chromatography and developed. Effect of the test compound was determined from the amount of ^14 C-5-hydroxyeicosatetraenoic acid (hereinafter referred to as "5-HETE") formed from ^14 C-arachidonic acid. Radioactivity of 5-HETE position was measured with a liquid scintillation counter.
Inhibition rate against 5-lipoxygenase activity was calculated according to the following equation.
Inhibition rate against 5-lipoxygenase activity [formula] A: Value of radioactivity in the control group B: Value of radioactivity in the test compound group
Each test compound was used in a concentration of 10 μM.

| inhibition at 10 µM (5-lipoxygenase) [%] | SMILES | inhibition at 10 µg/mL [1] [%] |
| --- | --- | --- |
|  | CC(C)c1cccc2n(Cc3ccc(Cl)cc3)c(=O)c(-c3nn[nH]n3)c-2c1 [Example 56] | 88 |
|  | N#Cc1c2cccccc-2nc1Nc1ccc(C(=O)O)cc1 [Example 67] | 57 |
|  | O=c1[nH]c2cccccc-2c1-c1nnn[nH]1 [Example 14] | 89.6 |
|  | CCOC(=O)c1ccc(Nc2nc3cccccc-3c2C#N)cc1 [Example 66] | 20.5 |
|  | CC(C)n1c2cccccc-2c(-c2nn[nH]n2)c1=O [Example 52] | 81.2 |
|  | O=c1c(-c2nn[nH]n2)c2cccccc-2n1CCc1ccccc1 [Example 26] | 94.1 |
|  | COC(=O)c1ccccc1Nc1nc2cccccc-2c1C#N [Example 68] | 8.9 |
|  | CCCCCCn1c2cccccc-2c(-c2nnn[nH]2)c1=O [Example 20] | 91.1 |
|  | O=c1c(-c2nnn[nH]2)c2cccccc-2n1Cc1ccc(Cl)cc1 [Example 11, 1-(4-Chlorobenzyl)-3-(5-tetrazolyl)-1-azaazulane-2-one] | 85.8 |
|  | CCCc1c(OCCCn2c3cccc(C(C)C)cc-3c(-c3nn[nH]n3)c2=O)ccc(C(C)=O)c1O [Example 50] | 59.8 |
|  | O=c1c(-c2nn[nH]n2)c2cccccc-2n1CC=Cc1ccccc1 [Example 42] | 78.2 |
|  | N#Cc1c2cccccc-2nc1NCCC(c1ccccc1)c1ccccc1 [Example 59, 3-Cyano-2-(3,3-diphenylpropylamino)-1-azaazulene] | 14 |
|  | O=c1c(-c2nn[nH]n2)c2cccccc-2n1CCCc1ccccc1 [Example 28] | 92.6 |
| -2.2 | CC(C)c1cccc2c(-c3nn[nH]n3)c(=O)n(CCCCc3ccccc3)c-2c1 [Example 51] | 63.6 |
|  | COc1ccc(Cn2c3cccccc-3c(-c3nn[nH]n3)c2=O)cc1 [Example 39] | 93 |
| 60.6 | CC(C)c1cccc2c(-c3nnn[nH]3)c(=O)n(CCCCCc3ccccc3)c-2c1 [Example 7, 7-Iso-propyl-1-(5-phenylpentyl)-3-(5-tetrazolyl)-1-azaazulane-2-one] | 10.6 |
|  | CC(C)c1cccc2c(C#N)c(N=[N+]=[N-])nc-2c1 [Example 61, 2-Azido-3-cyano-7-isopropyl-1-azaazulene] | 3.8 |
|  | CC(C)c1cccc2n(Cc3cccs3)c(=O)c(-c3nn[nH]n3)c-2c1 [Example 55] | 65.8 |
|  | COc1ccccc1N1CCN(c2nc3cccccc-3c2C#N)CC1 [Example 64, 3-Cyano-2-(4-(2-methoxyphenyl)piperazinyl)-1-azaazulene] | -12.2 |

| inhibition at 10 µM (5-lipoxygenase) [%] | SMILES | inhibition at 10 µg/mL [1] [%] |
| --- | --- | --- |
|  | O=c1c(-c2nn[nH]n2)c2cccccc-2n1Cc1ccccc1F [Example 34] | 87.3 |
|  | CC(C)c1cccc2n(CCc3ccc(O)c(O)c3)c(=O)c(-c3nnn[nH]3)c-2c1 [Example 12, 1-(3,4-Dihydroxyphenylethyl)-5-iso-propyl-3-(5-tetrazolyl)-1-azaazulane-2-one] | 60 |
|  | O=c1c(-c2nn[nH]n2)c2cccccc-2n1CCCCc1ccccc1 [Example 31] | 70 |
| -1.1 | CC(C)(C)c1cc(C(=O)Cn2c3cccccc-3c(-c3nn[nH]n3)c2=O)cc(C(C)(C)C)c1O [Example 48] | 10.4 |
|  | CCOCCn1c2cccccc-2c(-c2nnn[nH]2)c1=O [Example 23] | 87.2 |
|  | N#CCCCn1c2cccccc-2c(-c2nnn[nH]2)c1=O [Example 24] | 86.3 |
|  | O=c1c(-c2nn[nH]n2)c2cccccc-2n1Cc1ccc(Cl)cc1Cl [Example 45] | 19.3 |
|  | O=c1c(-c2nn[nH]n2)c2cccccc-2n1Cc1cccc(F)c1 [Example 33] | 67.2 |
|  | CC(C)c1cccc2nc(NCC(=O)O)c(C#N)c-2c1 [Example 63, Sodium salt of 2-carboxymethylamino-3-cyano-5-isopropyl-1-azaazulene] | 85.3 |
|  | CC(C)c1cccc2c(-c3nn[nH]n3)c(=O)n(Cc3ccc(Cl)cc3)c-2c1 [Example 57] | 89 |
|  | N#Cc1c2cccccc-2nc1NC(Cc1ccccc1)C(=O)O (centres unmarked) [Example 71] | 8.1 |
|  | N#Cc1c2cccccc-2nc1N [Example 74] | 64.8 |
|  | CC(C)c1cccc2c(C#N)c(NCC(=O)O)nc-2c1 [Example 79] | 85.8 |
|  | Cn1c2cccccc-2c(-c2nnn[nH]2)c1=O [Example 15] | 96.1 |
|  | O=c1c(-c2nnn[nH]2)c2cccccc-2n1CCC(c1ccccc1)c1ccccc1 [Example 25] | 4.6 |
|  | CCOC(=O)C(Cc1ccccc1)Nc1nc2cccccc-2c1C#N (centres unmarked) [Example 70] | 4.2 |
|  | N#Cc1c2cccccc-2nc1N1CCCC1C(=O)O (centres unmarked) [Example 78] | 50.5 |
|  | CCCCCCCCCCCCCCCCCCn1c2cccccc-2c(-c2nnn[nH]2)c1=O [Example 21] | 10.1 |
|  | O=c1c(-c2nn[nH]n2)c2cccccc-2n1Cc1ccc(O)cc1 [Example 40] | 93.5 |

| inhibition at 10 µM (5-lipoxygenase) [%] | SMILES | inhibition at 10 µg/mL [1] [%] |
| --- | --- | --- |
|  | Cc1cc(C)c(Cn2c3cccccc-3c(-c3nn[nH]n3)c2=O)c(C)c1 [Example 47] | 12.6 |
|  | O=c1c(-c2nn[nH]n2)c2cccccc-2n1CCCCCc1ccccc1 [Example 32] | 1.5 |
|  | N#Cc1c2cccccc-2nc1N1CCN(C(c2ccccc2)c2ccccc2)CC1 [Example 69] | 33.2 |
|  | CCOC(=O)c1ccc(Cn2c3cccccc-3c(-c3nn[nH]n3)c2=O)cc1 [Example 37] | 64.8 |
|  | CC(C)c1cccc2c(-c3nn[nH]n3)c(=O)n(CCc3ccccc3)c-2c1 [Example 27] | 89.6 |
|  | O=c1c(-c2nnn[nH]2)c2cccccc-2n1Cc1ccc(F)cc1 [Example 8, 1-(4-Fluorobenzyl)-3-(5-tetrazolyl)-1-azaazulane-2-one] | 89.6 |
|  | O=c1c(-c2nn[nH]n2)c2cccccc-2n1CCCCl [Example 54] | 55.5 |
|  | N#Cc1c2cccccc-2nc1NCCN1CCCC1 [Example 75] | -9.6 |
|  | CC(C)c1cccc2nc(N=[N+]=[N-])c(C#N)c-2c1 [Example 76] | 70.5 |
|  | N#Cc1c2cccccc-2nc1NC(c1ccccc1)c1ccccc1 [Example 65] | 17.5 |
|  | CC(Nc1nc2cccccc-2c1C#N)C(=O)O (centres unmarked) [Example 73] | 60.8 |
|  | O=C(Cn1c2cccccc-2c(-c2nn[nH]n2)c1=O)c1ccc(Cl)cc1 [Example 41] | 32.3 |
|  | N#Cc1c2cccccc-2nc1NC(CO)C(=O)O (centres unmarked) [Example 72] | 22.5 |
|  | C=CCn1c2cccccc-2c(-c2nnn[nH]2)c1=O [Example 22] | 84.2 |
|  | COC(=O)C1CCCN1c1nc2cccccc-2c1C#N (centres unmarked) [Example 77] | 35.7 |
|  | N#Cc1c2cccccc-2nc1NCC(c1ccccc1)c1ccccc1 [Example 58, 3-Cyano-2-(2,2-diphenylethylamino)-1-azaazulene] | 16.1 |
|  | N#Cc1ccc(Cn2c3cccccc-3c(-c3nn[nH]n3)c2=O)cc1 [Example 36] | 43.2 |
|  | CC(C)c1cccc2n(Cc3ccc4ccccc4n3)c(=O)c(-c3nn[nH]n3)c-2c1 [Example 53] | 56.3 |
